Source: patent publication US4493843A, “Indole and indoline carboxylic acid compounds and method of use” (May & Baker Limited, priority 1980, dated 1985)
Structures can show the parent of a compound that is named as a salt. Where two headings read alike, the source gives them in different places.

What was measured:
serum glucose = test: Hypoglycaemic activity in diabetic mice; format: in vivo, Diabetic mice (strain C 57, black, MRI derived Obese/Obese); conditions: 200 mg/kg body weight per day orally for 3 days; 3 hours after last dose
Method: Hypoglycaemic Activity in Diabetic Mice
Diabetic mice (strain C 57, black, MRI derived Obese/Obese) of either sex each weighting between 45 and 70 g were given the test compound orally at a dose of 200 mg/kg body weight per day for 3 days. Three hours after the last dose the animals were weighed, anaesthetised with carbon dioxide and bled by cardiac puncture.
The serum glucose levels were assessed by the glucose-oxidase method of God-Perid.
Control groups (given doses of unmedicated tragacanth mucilage) were included with each test.
The percentage reduction in the concentration of serum glucose was calculated by comparison with the simultaneous controls, for each of the test compounds used.

[1] = test system: serum cholesterol and serum triglycerides; test: Hypolipidaemic activity in rats (compound in diet, last 7 of 10 days); format: in vivo, Male Wistar rats; conditions: Rattus norvegicus, po, 168 h, 7 days; for change in vivo at 0.2 % strength: 0.2 % w/w dose in diet; for change in vivo at 0.03 % strength: 0.03 % w/w dose in diet; for change in vivo at 0.1 % strength: 0.1 % w/w dose in diet
Method: Hypolipidaemic Activity in Rats
Male Wistar rats each weighing between 120 and 150 g were caged in groups of eight and fed a powdered diet for 10 days. For the last 7 days of that period the test compound was administered orally by mixing the compound in the diet and allowing the animals to feed normally. Food consumption was measured on day 9 for each group.
At noon on day 10 the animals were killed by inhalation of carbon dioxide from solid carbon dioxide. A sample of blood was removed by cardiac puncture and the serum cholesterol and serum triglycerides were analysed by means of an autoanalyser.
Control groups (receiving only the normal, unmedicated diet) were included with each test.
The percentage reductions in the concentrations of serum cholesterol and serum triglycerides were calculated by comparison with the simultaneous controls, for each concentration of the test compound used.

[2] = test system: Smooth muscle cells from explants of pig thoracic aorta; test: Aortic smooth muscle cell proliferation inhibiting activity; format: cell-based; conditions: Sus scrofa, 168 h, 5 μg/ml medium; six or seven day incubation; each value mean of four dishes
Method: Aortic smooth muscle cell proliferation inhibiting activity
Smooth muscle cells were grown in culture from explants of pig thoracic aorta, using Dulbecco's Modified Eagles (DME) Medium containing 20% foetal calf serum (FCS) and antibiotics. The cells were incubated at 37° C. in an atmosphere of 95% air and 5% carbon dioxide. At confluency the cells were routinely subcultured by trypsinising and replating at approximately one third of their confluent density in DME Medium containing 10% FCS and antibiotics.
The smooth muscle cells were plated out at densities of 100,000-200,000 cells per 35×10 mm Falcon dish in 2 ml DME Medium containing 10% FCS and antibiotics. After 24 hours, when the cells had attached to the dishes, the medium was replaced with 2 ml DME Medium containing 1% FCS and antibiotics. The cultures were incubated for a further three days to allow the cells to become quiescent (i.e. no longer undergoing cell division). The medium was then replaced by 2 ml control or test medium. The test medium consisted of DME Medium (containing 10% FCS and antibiotics) and the compound to be tested at a concentration of 5 μg/ml medium. The compounds were pre-dissolved in acetone such that the final concentration of acetone in the medium was 0.2% (v/v). The control medium consisted of DME Medium (containing 10% FCS and antibiotics) and acetone at 0.2% (v/v) concentration. After three days incubation in test or control medium, the medium was replaced with fresh test or control medium and the cells incubated for a further three or four days. At the end of the six or seven day incubation period cell numbers were determined by trypsinising the cells and counting the cell suspension in a Coulter counter.
All results in Table II hereafter represent the mean value for four dishes of cells. Percentage inhibition of proliferation was calculated using the following formula: [formula] where S=Mean cell number per dish at start of experiment (upon addition of control or test medium).
T=Mean cell number per dish in test cultures at completion of experiment.
C=Mean cell number per dish in control cultures at completion of experiment.

[3] = read-out: % change in serum cholesterol compared with control
[4] = read-out: % change in serum triglycerides compared with control

| Structure (SMILES) | change in vivo at 0.2 % strength [1, 3] [%] | change in vivo at 0.2 % strength [1, 4] [%] | inhibition at 5 µg/mL [2] [%] | further results |
| --- | --- | --- | --- | --- |
| CCCCCCCCCCCC1CNc2cc(C(=O)O)ccc21 (racemic) [Compound BXX, (RS)-3-(n-undecyl)indoline-6-carboxylic acid] | -10 | -39 |  | % change in serum glucose compared with control (serum glucose): -9% |
| CCCCCCCc1cc2ccc(C(=O)OCC)cc2[nH]1 [Compound AJJ, ethyl 2-(n-heptyl)indole-6-carboxylate] | -8 | 6 | 45 |  |
| CCCCCCCc1cc2cc(C(=O)OC)ccc2[nH]1 [Compound ASS, methyl 2-(n-heptyl)indole-5-carboxylate] | -2 | -20 | 36 |  |
| CCCCCCCCCCCc1[nH]c2ccc(C(=O)O)cc2c1C [Compound CQQ, 2-(n-undecyl)-3-methylindole-5-carboxylic acid] |  |  |  | % change in serum glucose compared with control (serum glucose): -40% |
| CCCCCCCCCCCCCCCc1cc2cc(C(=O)O)ccc2[nH]1 [Compound G, 2-(n-pentadecyl)indole-5-carboxylic acid] |  |  | 51 | change in vivo at 0.03 % strength [1, 3]: -7%; change in vivo at 0.03 % strength [1, 4]: -41% |
| CCCCCCCCCCCCCCc1cc2cc(C(=O)O)ccc2[nH]1 [Compound NN, 2-(n-tetradecyl)indole-5-carboxylic acid] | -39 | -73 | 76 |  |
| CCCCCCCCCCCCCCCCCCc1cc2cc(C(=O)O)ccc2[nH]1 [Compound T, 2-(n-octadecyl)indole-5-carboxylic acid] | -43 | -67 | 30 | change in vivo at 0.1 % strength [1, 3]: -45%; change in vivo at 0.1 % strength [1, 4]: -78% |
| CCCCCCCCCCCCCCCCc1cc2ccc(C(=O)O)cc2[nH]1 [Compound TT, 2-(n-hexadecyl)indole-6-carboxylic acid] | -8 | -6 | 61 |  |
| CCCCCCCCCc1cc2cccc(C(=O)O)c2[nH]1 [Compound WW, 2-(n-nonyl)indole-7-carboxylic acid] | -3 | 45 |  |  |
| CCCCCCCCc1cc2cc(C(=O)O)ccc2[nH]1 [Compound X, 2-(n-octyl)indole-5-carboxylic acid] | -18 | -25 |  |  |
| CCCCCCCCCCCc1cc2cccc(C(=O)O)c2[nH]1 [Compound XX, 2-(n-undecyl)indole-7-carboxylic acid] | -2 | 8 |  |  |
| CCCCCCCCCCCCc1cc2cc(C(=O)O)ccc2[nH]1 [Compound Y, 2-(n-dodecyl)indole-5-carboxylic acid] | -30 | -80 |  | change in vivo at 0.1 % strength [1, 3]: -20%; change in vivo at 0.1 % strength [1, 4]: -51% |
| CCCCCCCCCc1cc2c(C(=O)O)cccc2[nH]1 [Compound Z, 2-(n-nonyl)indole-4-carboxylic acid] | -14 | -14 |  |  |
| CCCCCCCCCCCCCCCc1cc2ccc(C(=O)O)cc2[nH]1 [D sodium salt] |  |  |  | change in vivo at 0.1 % strength [1, 3]: -10%; change in vivo at 0.1 % strength [1, 4]: -18% |
